Laboratory results taken from patent US10059741B2 (priority 2015, dated 2018).
Like-named read-outs stand apart in the source and are kept apart here. Bridge positions count the residues as written; N and C are the ends. Square brackets hold non-standard residues; d marks the D form. Peptide text beside a SMILES is read from it. R8 = C=CCCCCCC[C@@](C)(N)C(=O)O; S5 = C=CCCC[C@](C)(N)C(=O)O; Nle = CCCC[C@H](N)C(=O)O; Aib = CC(C)(N)C(=O)O

Experiments:
[1] = test system: H3N2 Perth/16/2009; assay: microbe, parasite or virus in culture; format: cell-based, influenza A virus
[2] = test system: H1N1 California/07/2009; assay: microbe, parasite or virus in culture; format: cell-based, influenza A virus
[3] = in vitro; conditions: dog
[4] = test system: H1N1 California/07/2009; assay: microbe, parasite or virus in culture; format: cell-based, influenza A virus; remark: listed apart in the source
[5] = test system: influenza virus, various viral strains; assay: organism not typed; format: cell-based; conditions: read-out: EC50
[6] = test system: H5N1 A/Hong Kong/213/2003; assay: microbe, parasite or virus in culture; format: cell-based, influenza A virus; conditions: read-out: EC50
[7] = test system: H3N2 Perth/16/2009; assay: microbe, parasite or virus in culture; format: cell-based, influenza A virus; remark: listed apart in the source
[8] = test system: H7N9 A/Anhui/1/2013; assay: microbe, parasite or virus in culture; format: cell-based, influenza A virus; conditions: read-out: EC50
[9] = test system: H1N1 A/Solomon Island/03/2006; format: cell-based, influenza A virus; conditions: read-out: EC50
[10] = read-out: EC50 (μM) H3N2 Perth/16/2009
[11] = read-out: EC50 (μM) H1N1 California/07/2009
[12] = CC50 (μM) H1N1 California/07/2009, Cell cytotoxicity (CC), run with H1N1 California/07/2009
[13] = CC50 (μM) H3N2 Perth/16/2009, Cell cytotoxicity (CC), run with H3N2 Perth/16/2009
[14] = CC50, run with Influenza A H1N1 A/Solomon Is./3/2006-M, Neutral Red
[15] = CC50, run with Influenza A H1N1 A/Solomon Is./3/2006-M, Visual
[16] = CC50, run with Influenza A H1N1 California/07/20/09 (so in the source), later run, Neutral Red
[17] = CC50, run with Influenza A H1N1 California/07/20/09 (so in the source), Visual/Neutral Red
[18] = CC50, run with Influenza A H1N1 California/07/2009, Neutral Red
[19] = CC50, run with Influenza A H1N1 California/07/2009, Visual
[20] = CC50, run with Influenza A H3N2 Perth/16/2006 (so in the source), Neutral Red
[21] = CC50, run with Influenza A H3N2 Perth/16/2006 (so in the source), Visual
[22] = CC50, run with Influenza A H3N2 Perth/16/2009, last run, Neutral Red
[23] = CC50, run with Influenza A H3N2 Perth/16/2009, Visual/Neutral Red
[24] = Cytopathic effect/toxicity (Visual), MDCK cells, read-out: EC50 (μM) H3N2 Perth/16/2009
[25] = Influenza A H3N2 Perth/16/2006 (so in the source), Drug Assay Visual, read-out: EC50
[26] = Cytopathic effect/toxicity (Neutral red), MDCK cells, read-out: EC50 (μM) H1N1 California/07/2009
[27] = Influenza A H1N1 California/07/20/09 (so in the source), later run, Drug Assay Neutral Red, read-out: EC50
[28] = Influenza A H1N1 California/07/20/09 (so in the source), Drug Assay Visual/Neutral Red
[29] = Influenza A H1N1 California/07/2009, Drug Assay Neutral Red, read-out: EC50
[30] = Cytopathic effect/toxicity (Visual), MDCK cells, read-out: EC50 (μM) H1N1 California/07/2009
[31] = Influenza A H1N1 California/07/2009, Drug Assay Visual, read-out: EC50
[32] = Influenza A H1N1 A/Solomon Is./3/2006-M, Drug Assay Visual
[33] = Cytopathic effect/toxicity (Neutral red), MDCK cells, read-out: EC50 (μM) H3N2 Perth/16/2009
[34] = Influenza A H3N2 Perth/16/2006 (so in the source), Drug Assay Neutral Red, read-out: EC50
[35] = Influenza A H3N2 Perth/16/2009, last run, Drug Assay Neutral Red, read-out: EC50
[36] = Influenza A H3N2 Perth/16/2009, Drug Assay Visual/Neutral Red
[37] = Influenza A H1N1 A/Solomon Is./3/2006-M, Drug Assay Neutral Red

Structure (SMILES)	CC50 ([3]; CC50)	CC50 [3, 12]	CC50 [3, 13]	CC50 [3, 14]	CC50 [3, 15]	CC50 [3, 16]	CC50 [3, 17]	CC50 [3, 18]	CC50 [3, 19]	CC50 [3, 20]	CC50 [3, 21]	CC50 [3, 22]	CC50 [3, 23]	EC50 [6]	EC50 [8]	EC50 [1, 24]	EC50 [1, 25]	EC50 [2, 26]	EC50 [2, 27]	EC90 [2, 28]	also measured
CCCC[C@H](NC(C)=O)C(=O)N[C@@H](CC(=O)O)C(=O)N[C@H](C(=O)N[C@@H](CC(N)=O)C(=O)N[C@@]1(C)CCCC=CCCC[C@@](C)(C(=O)N[C@@H](CC(C)C)C(=O)N[C@@H](C)C(=O)N[C@H](C(=O)N[C@@H](CCC(N)=O)C(=O)N[C@@H](C)C(=O)N[C@@H](C)C(=O)NC(C)(C)C(=O)N[C@@H](C)C(N)=O)C(C)C)NC(=O)[C@H](CC(C)C)NC(=O)[C@H](CC(C)C)NC(=O)[C@H]([C@@H](C)O)NC1=O)C(C)C [SP-22] (Ac-[Nle]DVN[S5]TLL[S5]LAVQAA[Aib]A-NH2; staple 5-9)	> 50 µM	> 100 µM	> 100 µM	> 100 µM	> 100 µM	> 100 µM	> 100 µM	> 100 µM	> 100 µM	> 100 µM	> 100 µM	> 100 µM	> 100 µM	> 50 µM	13 µM						EC50 ([1]; read-out: EC50): 0.54 µM; EC50 [1, 10]: < 1.5 µM; EC90 [2]: 6.5 µM; EC50 [2, 11]: 1.5 to 10 µM; EC50 ([4]; read-out: EC50): 1.8 µM; EC50 [4, 11]: 1.5 to 10 µM; EC50 [5]: 12 µM; EC90 [7]: 59 µM; EC50 [7, 10]: < 1.5 µM; EC50 [9]: 29 µM
CCCC[C@H](NC(C)=O)C(=O)N[C@@H](CC(=O)O)C(=O)N[C@H](C(=O)N[C@@H](CC(N)=O)C(=O)N[C@]1(C)CCCCCCC=CCCC[C@@](C)(C(=O)N[C@@H](C)C(=O)N[C@@H](C)C(=O)N[C@@H](C)C(=O)N[C@@H](C)C(=O)N[C@@H](C)C(N)=O)NC(=O)[C@H](C)NC(=O)[C@H](CC(C)C)NC(=O)[C@H](Cc2ccccc2)NC(=O)[C@H](CC(C)C)NC(=O)[C@H](CC(C)C)NC(=O)[C@H]([C@@H](C)O)NC1=O)C(C)C [SP-25] (Ac-[Nle]DVN[R8]TLLFLA[S5]AAAAA-NH2; staple 5-12)	> 50 µM	> 100 µM	> 100 µM	> 100 µM	> 100 µM	> 100 µM	> 100 µM	> 100 µM	> 100 µM	> 100 µM	> 100 µM	> 100 µM	> 100 µM	> 50 µM	33 µM	< 1.5 µM	0.34 µM	< 1.5 µM	6.6 µM	8.2 µM	EC50 [2, 29]: 1.1 µM; EC50 [4, 30]: < 1.5 µM; EC50 [4, 31]: 0.57 µM; EC50 [5, 32]: 3.6 µM; EC50 [7, 33]: < 1.5 µM; EC50 [7, 34]: 0.43 µM; EC50 [7, 35]: 49 µM; EC90 [7, 36]: 49 µM; EC50 [9, 37]: 6.5 µM
CCCC[C@H](NC(C)=O)C(=O)N[C@@H](CC(=O)O)C(=O)N[C@H](C(=O)N[C@@H](CC(N)=O)C(=O)N[C@]1(C)CCCCCCC=CCCC[C@@](C)(C(=O)N[C@@H](CCC(N)=O)C(=O)N[C@@H](C)C(=O)N[C@@H](C)C(=O)N[C@@H](C)C(=O)N[C@@H](C)C(N)=O)NC(=O)[C@H](C)NC(=O)[C@H](CC(C)C)NC(=O)[C@H](Cc2ccccc2)NC(=O)[C@H](CC(C)C)NC(=O)[C@H](CC(C)C)NC(=O)[C@H]([C@@H](C)O)NC1=O)C(C)C [SP-27] (Ac-[Nle]DVN[R8]TLLFLA[S5]QAAAA-NH2; staple 5-12)	> 50 µM	> 100 µM	> 100 µM	> 100 µM	> 100 µM	> 100 µM	> 100 µM	> 100 µM	> 100 µM	> 100 µM	> 100 µM	> 100 µM	> 100 µM	> 50 µM	9.6 µM	< 1.5 µM	0.32 µM	< 1.5 µM	8.7 µM	8 µM	EC50 [2, 29]: 0.44 µM; EC50 [4, 30]: < 1.5 µM; EC50 [4, 31]: 0.57 µM; EC50 [5, 32]: 32 µM; EC50 [7, 33]: 1.5 to 10 µM; EC50 [7, 34]: 1.7 µM; EC50 [7, 35]: 35 µM; EC90 [7, 36]: 35 µM; EC50 [9, 37]: 75 µM
